Broadly, the melting point is the temperature of the solid-liquid transition.

Molecules are shown by their SMILES. Bounds are passed on as bounds.

`Cc1cc2cc(CN3CCCC3)cnc2cc1NC(=O)c1ccc(-c2ccc(Cl)s2)cc1` displayed a melting point of 216 °C.
Under `NC(=O)Nc1cc(Oc2ncccc2C(F)(F)F)c(Cl)cc1F` stands > 220 °C.
The result for `CSc1ccc(Oc2ccc(N)cc2)c(C)c1` reads 162 °C; that for `O=[N+]([O-])c1ccc(OCc2ccccc2)c2cnsc12`, 158 to 160 °C; that for `CCOC(=O)Cc1ccc(NC(=O)C(COc2cccc(Cl)c2)NS(=O)(=O)c2ccc(Cl)cc2)cc1` (racemic), 173 to 174 °C.
Regarding `Cc1ccc(NC(Nc2ccc(C)cc2)Nc2ccc(C)cc2)cc1`, the melting point lay in the range of 130 to 131 °C.
The result for `Cc1cc2c(Cl)c(C#N)cnc2s1` reads 101 to 102 °C; that for `COc1ccc(O)cc1[N+](=O)[O-]`, 78 to 80 °C.
The result for `O=C(Nc1ccc(Cl)nc1)c1cccc(Cl)c1` reads 227 to 229 °C; that for `O=C(O)Cc1sc(Nc2ccccc2)nc1-c1ccc(Cl)cc1`, 256 to 257 °C; that for `CSCC(=O)C(Cc1ccc2ccccc2c1)NC(=O)C(CC(C)C)NC(=O)OCc1ccccc1` (centres undefined), 101 to 103 °C.
Under `Cc1c(-c2ccc(OCc3ccccc3)cc2)n(Cc2ccc(OCCN3CCCCCC3)cc2)c2ccc(OCc3ccccc3)cc12` stands 106 to 107 °C; under `O=C(O)c1cn(-c2ccc(F)cc2)c(-c2ccc(N=Cc3ccc([N+](=O)[O-])o3)cc2)cc1=O`, 129 to 131 °C.
Turning to `CCc1oc2ccccc2c1C(=O)c1cc(-c2ccccc2)c(O)c(-c2ccccc2)c1`, the melting point is 142 to 143 °C.
Under `CCc1cc(O)c(C(C)=O)c(O)c1` stands 121 to 123 °C; under `CC(C)(C)[C@H](NC(=O)[C@@H](CC(=O)O)n1ccc(-c2ccc(-c3ccc(C(N)=O)cc3)cc2)c1)C(=O)Nc1ccncc1`, 194 to 196 °C.
Under `COCCNc1nc(-n2ccnc2)nc2ccc(C(C)=O)cc12` stands 208 to 210 °C; under `CNc1ccc2n[nH]c(=O)n2n1`, > 348 °C.
`CCCn1cc2c(C3C(=O)Nc4ccc(C#N)cc43)nc(Cl)nc2n1` (centres undefined): the melting point is > 300 °C.
Under `CCCOC(=O)N1CCN(C(=O)c2cc(S(=O)(=O)N(C)C)ccc2N)CC1` stands 174 to 176 °C.
In turn, `CC[N+](CC)(CC)C1CC(=O)N1C(C(=O)OCc1ccc([N+](=O)[O-])cc1)=C([O-])CCSC` (centres undefined) came in with a melting point of 91 °C.
The result for `C[C@@H]1NC(=O)OC1(C)C` reads 60 °C.
Turning to `COc1ccc(N2CCN(c3c(C)c(C)c4c(c3C)C(N3CCCCC3)C(C)(C)O4)CC2)cc1OC` (centres undefined), the melting point lay within 134 to 135 °C.
Under `CCCOc1ccc(C(=O)OC)cc1C(C)=O` stands 44 to 47 °C; under `Cn1cncc1C(O)(c1ccc(Cl)cc1)c1ccc2nc(NN)nc(-c3cccc(Cl)c3)c2c1` (centres undefined), 186 °C.
The result for `N#Cc1cccc2c1NCC2` reads 66 to 67 °C; that for `COc1cc(/C=C/C=C/C(=O)NCCN2CCC(c3c[nH]c4ccccc34)CC2)ccc1OC(C)=O`, 101 to 105 °C; that for `CCOc1cc(C(=CC#N)c2ccc(NC(C)=O)cc2)ccc1OC`, 175 to 177 °C.
Under `OC(c1ccccc1)c1ccccc1Cl` (centres undefined) stands 61 to 63 °C; under `NC(Cc1c[nH]c2ccccc12)C(=O)Nc1c(F)cc(F)cc1F` (centres undefined), 45 to 55 °C; under `CN1C(=O)CN(c2cccc(O)c2)NC1=O`, 95 to 96 °C.
For the compound `COc1cccc(-n2c(=O)n(O)c(=O)c3cc(F)c(N4CCCC4)cc32)c1`, the melting point was in the range of 216 to 218 °C.
The result for `NS(=O)(=O)c1cc2c(c(C(=O)N3CCN(c4ncccn4)CC3)c1)OCCO2` reads 239 °C; that for `OC12CCCC1N=C(S)N2c1ccccn1` (centres undefined), 126 to 127 °C; that for `O=C(O)CCCCCCCCNS(=O)(=O)c1cccc(Cl)c1`, 112 to 113 °C.
Turning to `COCC1COc2cc3ncnc(Nc4cccc(I)c4)c3cc2O1` (centres undefined), the melting point was in the range of 175 to 177 °C.
The result for `CC(C)C[C@H](N)[C@@H](O)CCSCCc1ccccc1` reads 95 to 96 °C; that for `CCCCCCCCC(O)CNCCCCCCNCC(O)CCCCCCCC` (centres undefined), 118 to 127 °C; that for `COc1cc(COc2cccc(CC(=O)O)c2-c2cccc(C(=O)O)c2)ccc1C12CC3CC(CC(C3)C1)C2`, 240 to 242 °C.
As for `CCOc1cc2c(cc1OCC)-c1c(C#N)sc(=N)n1CC2`, the melting point was 180 to 182 °C.
`COC(=O)c1[nH]c2ncccc2c1-c1ccc(N)cc1` yielded a melting point of 236 °C.
The result for `COc1ccc(S(=O)(=O)n2ccc3ccnc(-c4ccc([N+](=O)[O-])cc4)c32)cc1` reads 178 to 179 °C.
The result for `CCOCc1nc2cnc3cc(OCCNC(=O)OC(C)(C)C)ccc3c2n1CC1COC(C)(C)O1` (centres undefined) reads 152 to 153 °C; that for `CN(C)CC#CCNC(=O)/C=C\C(=O)O`, 155 to 157 °C.
The result for `O=C1NCN(c2ccc(F)cc2)C12CCN(CCCN(c1ccc(F)cc1)c1ccc(F)cc1)CC2` reads 162 to 163 °C; that for `CC(=O)OCC1Cc2c(C3=C(c4cn(C)c5ccccc45)C(=O)OC3=O)c3ccccc3n2C1` (centres undefined), 208 to 211 °C; that for `C=C1CCC2C3CCC4CC(O)C(OC)CC4(C)C3CCC12C` (centres undefined), 131 to 133 °C.
Regarding `C=C1OC(=NO)C(c2ccccc2)C(=O)N1C(C)(C)C(=O)Nc1cc(Cl)cc(Cl)c1` (centres undefined), the melting point was 208 to 210 °C.
The result for `CCOCc1nc2c(N)nc3ccccc3c2n1CCCC(=O)N(C)OC` reads 163 to 165 °C; that for `O=S1(=O)c2ccccc2NC(CO)c2cccn21` (centres undefined), 135 to 136 °C; that for `CCN(CC)CCOc1ccc(NC(=O)C#Cc2cccnc2)cc1Cl`, 118 to 120 °C.
Under `CNC(=O)C(Cc1ccc(F)cc1)NC(=O)Nc1n[nH]c(=S)s1` (centres undefined) stands 225 to 227 °C; under `O=c1[nH]cnc2ccc(-c3cccnc3)cc12`, 240 to 246 °C; under `O=C(O)Cc1cc2c3ccccc3[nH]c(=O)n2n1`, 253 to 254 °C.
The result for `Cc1cccc(-c2[nH]c(C(C)C)nc2-c2cccc(-c3ccncc3)c2)n1` reads 84 to 86 °C; that for `COC(=O)c1ccc2cc(-c3ccc(C(=O)OC)c(C45CC6CC(CC(C6)C4)C5)c3)ccc2c1`, 181 to 182 °C; that for `COc1ccc(-c2ccc3c(C(=O)N(C)C)c(OC)ccc3c2)cc1`, 187 to 188 °C.
With `C1=CC2=NC=NC23CCNCC3N1` (centres undefined), the melting point was in the range of 94 to 95 °C.
Under `O=C(O)CCCCOc1ccc(OCc2ccccc2)cc1` stands 127 to 128 °C.
The result for `Cn1cc2c(ncn3nc(-c4ccco4)nc23)n1` reads 155 to 156 °C; that for `COc1ccc(CC2c3c(cc(OC)c(OC)c3O)CCN2C)cc1` (centres undefined), 112 to 114 °C.
The compound `CC(C)(OCCCCCCCCc1csc(-c2ccccc2)n1)C(=O)O` displayed a melting point of 64 to 70 °C.
The result for `CCOC(=O)c1ncsc1-c1cccc(I)c1` reads 77 to 78 °C; that for `O=C(c1ccco1)c1cnn2c(-c3cccc(N4CCCCC4=O)c3)ccnc12`, 159 to 160 °C.

The values above are taken from a melting point compilation (Tetko et al.; mined from patent text by program, amines drawn as free bases though some values may be those of a salt).
